Measurements: article PMC6161018, “Synthesis, Structure–Activity Relationships and In Vitro Toxicity Profile of Lactose-Based Fatty Acid Monoesters as Possible Drug Permeability Enhancers” (Pharmaceutics, 2018)
Values joined by “and” are separate entries in the source; they are usually repeats but may differ in a detail not shown here. Identical values can stand only once.

Assays:
Calu-3 cells [1] = assay: MTT cell viability assay; assay type: cell-based; conditions: Calu-3, 24 h exposure, 50% reduction of viable cells; for IC50: Homo sapiens
Method: (§1) Caco-2 and Calu-3 cells were seeded in sterile 96-well culture plates at a density of 3 × 10^4 cells per well. The cells were incubated to attain at least 80% confluence before the experiment. Stock solutions of surfactants were prepared in phosphate buffered saline (PBS). They were diluted at various concentrations (from 0.0078 to 1 mg/mL) in cell culture medium before added to the cells. Complete culture media were used as control. The cytotoxic effect of each surfactant was evaluated using the MTT cell viability assay. After 24 h of incubation, surfactant solution was discarded and replaced by MTT solution (0.8 mg/mL). The cells were subjected to MTT treatment for 2 h. Formazan crystals formed were then dissolved in absolute isopropanol and incubated with gentle shaking at room temperature for 15 min. Absorbance was measured at 570 nm using a microplate reader (Multiskan™ GO Microplate Spectrophotometer Thermo Scientific, Waltham, MA, USA). Percentage of viable cells was calculated using untreated cells as control with 100% cell viability. The percentage of viable cells was plotted against log concentration of the surfactants. IC50 (mg/mL), the concentration of surfactant that caused a 50% reduction in cell viability was calculated by fitting the experimental data with dose–response model (Prism 6, Version 6.0b, GraphPad Software).

Caco-2 cells [2] = assay: MTT cell viability assay; assay type: cell-based; conditions: Caco-2, 24 h exposure, 50% reduction of viable cells; for IC50: Homo sapiens
Method: as §1

Calu-3 cell monolayer = assay: Trans-epithelial electrical resistance (TEER) measurement; assay type: cell-based; conditions: Calu-3 monolayer, apical, 2 h, applied at MTT IC50 and at highest 100% viability concentration
Method: (§2) Caco-2 and Calu-3 cells were seeded at a density of 2 × 10^5 cells per well on filter inserts (Transwell® Permeable Support 12 mm Insert, Corning Life Sciences, Tewksbury, MA, USA) and cultured to confluence under air-liquid interface conditions. Culture media on the baso-lateral sides of the cells were changed every 24 h. For TEER measurements, culture medium was discarded from the cell layer and replaced with Kreb’s Balanced Saline Solutions (KBSS) on both the apical and baso-lateral sides of the monolayers. Cell layers were allowed equilibrating in KBSS at 37 °C, 5% CO2 for 45 min prior to sample application. Baseline TEER was measured before the treatment with surfactants. For each surfactant, concentrations that caused 50% cell viability, and the highest concentration that maintained 100% cell viability (according to the MTT assay) were added to the apical sides of the cell layers and incubated for 2 h. TEER was then measured at 5, 30, 60, 90 and 120 min after surfactant addition. Between TEER measurements, cells were incubated at normal cell culture conditions. After 120 min, surfactant was removed, and culture media were added to both sides of the filter inserts. TEER measurement was conducted again after 24 h to evaluate the recovery of cell monolayers. A volt-ohmmeter (Millcell® ERS-2 Voltohmmeter, Millipore, Burlington, MA, USA) equipped with a pair of electrodes was used for TEER measurement. Baseline TEER measured from cell layers incubated in KBSS was used as control and the change in TEER was presented as a percentage relative to baseline value. Three independent experiments were performed in duplicate.

Calu-3 cells [3] = assay: Lactate dehydrogenase (LDH) release assay; assay type: cell-based; conditions: Calu-3, 24 h exposure, 50% release of LDH; for IC50: Homo sapiens
Method: (§3) Caco-2 and Calu-3 cells were seeded in sterile 96-well culture plates at a density of 3 × 10^4 cells per well. Surfactant solutions (at the same concentration as in MTT assay described above) were added to the cells and incubated at 37 °C for 24 h. Triton X-100 at 1% v/v was used as positive control. LDH release assay was conducted according to the manufacturer’s protocol. The percentage of released LDH was calculated relative to the controls by taking samples treated with Triton X-100 as complete LDH release and untreated cells as nil LDH release.
(§4) The concentration of surfactant that caused a 50% release of LDH (IC50, mM), was calculated by fitting the experimental data with dose–response model (Prism 6, Version 6.0b, GraphPad Software).

Caco-2 cells [4] = assay: Lactate dehydrogenase (LDH) release assay; assay type: cell-based; conditions: Caco-2, 24 h exposure, 50% release of LDH
Method: as §3, §4

[5] = Surface tension measurements (tensiometry), CMC determination; assay type: physicochemical; conditions: for Amin (minimum area per surfactant molecule): air-water interface, calculated from Γmax; for γCMC (surface tension at CMC) / CMC (critical micelle concentration): in water, room temperature; for CMC (critical micelle concentration): straight-line interception method; for Γmax × 10^−6 (maximum surface excess): values × 10^−6, Gibbs equation from surface tension plot
Method: Surface tension of different concentrations of surfactant solutions in water was measured using a platinum cylindrical rod probe with wetted length of 1.6 mm (K100-Krüss force tensiometer, Hamburg, Germany) at room temperature. Approximately 1 mL of each surfactant solution was placed onto a Teflon plate and the surface of the liquid was aspirated to remove any remaining impurities. Then, the rod probe was immersed 2 mm into the liquid. Data are expressed as the mean of three repeated measurements performed at room temperature. The critical micelle concentration and the surface tension at the CMC (γCMC) were calculated through the straight-line interception method, while the Gibbs surface excess (Γmax) was calculated from the following equation:(1) Γmax=1/2.303 × n × R × T (δγ/δlogC) where T is the absolute temperature, R is the gas constant (8.314 J/mol K), C is the surfactant concentration, n = 1 for a non-ionic candidate. δγ/δlogC was calculated from the maximum slope of the plot surface tension vs. surfactant concentration in the linear region before CMC.
The minimum area per surfactant molecule at the air-water interface (Amin) was determined as follow:(2) Amin= 10^18/N × Γmax where N is the Avogadro number.

Calu-3 cells [6] = assay: Mitochondrial membrane potential (JC-1 assay); assay type: cell-based; conditions: Calu-3, 24 h in HBSS, same concentrations compared
Method: (§5) Caco-2 and Calu-3 cells were seeded in sterile 96 well plates at a density of 1 × 10^4 cells per well and cultured for 24 h. As above, surfactant solutions were applied in Hank’s balanced salt solution (HBSS) for 24 h. One millimolar FCCP was employed as the positive, mitochondrial depolarizing control. Following exposure, treatments were removed and cells were washed twice with PBS prior to the addition of 50 µL (5 µg/mL) JC-1 dye diluted in complete DMEM (without antibiotics) per well for 15 min at 37 °C. Dye solution was then removed and wells washed with PBS followed by addition of 50 µL/well PBS prior to measuring fluorescence at 550/600 nm (λex/λem) for detection of JC-1 J-aggregates and 485/535 nm (λex/λem) for detection of JC-1 monomers. A ratio between JC-1 aggregates and JC-1 monomer signals was then taken, and data normalized by setting the untreated control as a value of 1.0 and the positive control (1.0 mM FCCP) as a value of 0.0.

Caco-2 cells [7] = assay: Mitochondrial membrane potential (JC-1 assay); assay type: cell-based; conditions: Caco-2, 24 h in HBSS, same concentrations compared
Method: as §5

Caco-2 cell monolayer = assay: Trans-epithelial electrical resistance (TEER) measurement; assay type: cell-based; conditions: Caco-2 monolayer, apical, 2 h; applied at MTT IC50 and at highest 100% viability concentration
Method: as §2

SMILES | MTT Assay IC50 (Calu-3 cells [1]) | IC50 (Calu-3 cells [1]) [µM] | MTT Assay IC50 (Caco-2 cells [2]) | IC50 (Caco-2 cells [2]) [µM] | effect on TEER (Calu-3 cell monolayer) | effect on TEER (Calu-3 cell monolayer; listed as lactose caprate) | LDH Assay IC50 (Calu-3 cells [3]) | IC50 (Calu-3 cells [3]) [µM] | LDH Assay IC50 (Caco-2 cells [4]) | IC50 (Caco-2 cells [4]; Homo sapiens, Caco-2, 24 h) [µM] | Amin (minimum area per surfactant molecule) [5] [Å^2] | γCMC (surface tension at CMC) [5] [mN/m] | CMC (critical micelle concentration) [5] | γCMC (surface tension at CMC) ([5]; listed as lactose caprate) | Γmax × 10^−6 (maximum surface excess) [5] [mol/m^2] | mitochondrial membrane potential (J-aggregates:J-monomers ratio) (Calu-3 cells [6]) | mitochondrial membrane potential (J-aggregates:J-monomers ratio) (Caco-2 cells [7]) | IC50 (Caco-2 cells [4]) [µM] | effect on TEER (Caco-2 cell monolayer) | γCMC (surface tension at CMC) ([5]; listed as lactose laurate)
CCCCCCCCCC(=O)OC[C@H]1O[C@@H](O[C@H]2[C@H](O)[C@@H](O)[C@@H](O)O[C@@H]2CO)[C@H](O)[C@@H](O)[C@H]1O [Lactose caprate, 6′-O-Decanoyl-4-O-(β-D-galactopyranosyl)-D-glucopyranose] | higher than the tested concentration range | > 2000 | higher than the tested concentration range | > 2000 | more significant decrease in TEER in Calu-3 cells compared to Caco-2 cells | only slightly affected the TEER | higher than the tested concentration range | > 2000 | higher than the tested concentration range | > 2000 | 17.46 ± 0.25 | 40.6 ± 0.04 | 2.58 ± 0.32 mM | around 40 mN/m | 9.52 ± 0.11 | – | – | – | – | –
CCCCCCCCCCCCCCCC(=O)OC[C@H]1O[C@@H](O[C@H]2[C@H](O)[C@@H](O)[C@@H](O)O[C@@H]2CO)[C@H](O)[C@@H](O)[C@H]1O [Lactose palmitate, 6′-O-Esadecanoyl-4-O-(β-D-galactopyranosyl)-D-glucopyranose] | – | 122 | – | 60 | – | – | – | 142 | – | 194 | 25.69 ± 0.43 | 45.1 ± 0.33 | 0.08 mM and 0.08 ± 0.03 mM | – | 6.46 ± 0.11 | highest cytotoxic effect | highest cytotoxic effect | 163 | – | –
CCCCCCCCCCCC(=O)OC[C@H]1O[C@@H](O[C@H]2[C@H](O)[C@@H](O)[C@@H](O)O[C@@H]2CO)[C@H](O)[C@@H](O)[C@H]1O [Lactose laurate, 6′-O-Dodecanoyl-4-O-(β-D-galactopyranosyl)-D-glucopyranose] | – | 1070 | – | 376 | most effective surfactant in decreasing the TEER at both tested concentrations | – | – | 452 | – | 597 | 17.45 ± 0.09 | 40.4 ± 0.02 | 0.55 ± 0.02 mM | – | 9.52 ± 0.05 | – | – | – | moderate reduction of TEER | around 40 mN/m
CCCCCCCCCCCCCC(=O)OC[C@H]1O[C@@H](O[C@H]2[C@H](O)[C@@H](O)[C@@H](O)O[C@@H]2CO)[C@H](O)[C@@H](O)[C@H]1O [Lactose myristate, 6′-O-Tetradecanoyl-4-O-(β-D-galactopyranosyl)-D-glucopyranose] | – | 261 | – | 112 | – | – | – | 189 | – | 194 | 19.86 ± 0.80 | 45.6 ± 0.19 | 0.14 ± 0.05 mM | – | 8.37 ± 0.46 | – | – | – | – | –
